These results are taken from patent publication US20070004652A1, “Treatment of occlusive thrombosis” (Mars, Incorporated, priority 2005, published 2007).

The subject of one assay is human endothelial cells. Put plainly: Genomic investigation (Affymetrix microarray, Taqman validation) of gene expression of human endothelial cells. It is filed as cell-based. The note with it: human endothelial cells in vitro and human plasma. An excerpt:
We have employed a genomic approach to comprehensively investigate the effects of (−)-epicatechin (including a mixture of (−)-epicatechin metabolites), procyanidin dimer B1, and procyanidin dimer A2 on the gene expression of human endothelial cells in vitro. Following the completion of an extensive evaluation utilizing an Affymetrix Oligonucleotide Microarray Gene Expression Analysis System, we have subsequently validated our findings using Taqman® Gene Expression Assays, and confirmed the ensuing data by directly assessing amounts or activities of the target proteins in cultured human endothelial cells and human plasma, respectively.

The subject of assay [1] is uPA mRNA expression in human umbilical vein endothelial cells (HUVEC). Put plainly: Taqman gene expression assay, uPA mRNA in HUVEC. To be noted: 5 μM, 0.5 to 24 hours, FIG. 1B. It is filed as cell-based. The procedure: (§1) Human umbilical vein endothelial cells (HUVEC) were cultured in an endothelium-specific, 2% serum-containing, growth factor-supplemented, antibiotic-free culture medium. Cryo-preserved cells from a single, donor in passage 1 or 2 were directly seeded into fibronectin-coated 6 well plates at a seeding density of 5000 cells/cm^2 and cultured without sub-culturing using standard cell culture conditions. 50% of the medium was replaced with fresh medium every 24 h until confluence. Cells were treated with the B1 dimer at a final concentration of μ5 M for 0.5, 2, 4, and 24 hours, respectively, and mRNA was isolated with a Qiagen mRNA Isolations System. cDNA was synthesized from mRNA samples using a HPLC-purified T7 Oligo(dT) primer and SuperScript II reverse transcriptase enzyme (Invitrogen). The ensuing cDNA samples were purified using a Qiagen PCR purification system. The cDNA templates were added to standardized Taqmang® Gene Expression Assays (Applied Biosystems) reactions mixtures and a Real-Time PCR was performed using standardized thermo-cycling conditions. An absolute quantification method of analyzing gene expression levels was used on triplicate reactions of each sample, and amplification plots generated by the Applied Biosystems 7900HT Fast Real-Time PCR System were analyzed using ABI Prism SDS v2.1 software.
A general note: In qPCR the cycle at which signal appears reflects the starting amount.

A further assay deals with plasma tPAtotal. Description: Plasma tPAtotal (free and bound tPA) after ingestion by human volunteers. It is filed as in vivo. To be noted: raw data, One Way ANOVA P=0.769. On the procedure: (§2) The test compound was administered to human volunteers in accordance with IRB-approved protocols and as detailed in the previous section of this report. The activity of tPA, uPA, and PAI in plasma was measured using an ELISA-based assay [Innovative Research Inc., Southfield, Mich., USA] in accordance with the manufacturer's instructions.
In addition to measurements of plasma tPA activity, we determined the amount of tPAtotal in plasma (tPAtotal=free and bound tPA).

In the next assay the test system is tPA release from HUVEC. Description: tPA release from HUVEC, tPA activity in culture medium (ELISA-based assay). It is filed as cell-based, human. The procedure: HUVEC cultures were established as detailed above, by seeding HUVEC into fibronectin-coated 6 well plates at a seeding density of 5000 cells/cm^2. Cells were cultured without sub-culturing using standard cell culture conditions. 50% of the medium was replaced with fresh medium every 24 h. […] The remaining medium was collected and the weight was recorded for subsequent activity calculations (for calculation purposes we assumed that 1 g of medium=1 mL). tPA and PAI release was measured as the activity of the respective proteins in the collected media using an ELISA-based assay [Innovative Research Inc., Southfield, Mich., USA] in accordance with the manufacturer's instructions.

For another assay, the system named is PAI release from HUVEC. Description: PAI activity in HUVEC culture medium (ELISA-based assay). It is filed as cell-based, human. To be noted: 24 h, not quite statistically significant (P=0.061, One Way ANOVA). The procedure: (§3) HUVEC cultures were established as detailed above, by seeding HUVEC into fibronectin-coated 6 well plates at a seeding density of 5000 cells/cm^2. Cells were cultured without sub-culturing using standard cell culture conditions. 50% of the medium was replaced with fresh medium every 24 h. Following an incubation of the HUVECs with the TC at a concentration of 5 μM for 24 h, an aliquote of the media was collected and analyzed for its content of tPA, and PAI, respectively. The remaining medium was collected and the weight was recorded for subsequent activity calculations (for calculation purposes we assumed that 1 g of medium=1 mL). tPA and PAI release was measured as the activity of the respective proteins in the collected media using an ELISA-based assay [Innovative Research Inc., Southfield, Mich., USA] in accordance with the manufacturer's instructions.
(In an ELISA, binding on a coated surface is turned into a signal by an enzyme label.)

For assay [2], the system named is PAI mRNA expression in human umbilical vein endothelial cells (HUVEC). Put plainly: Taqman gene expression assay, PAI mRNA in HUVEC. The format is cell-based. To be noted: 5 μM, 0.5 to 24 hours, FIG. 1C. The procedure: as §1
Another assay has as its system plasma uPA. Put plainly: Plasma uPA activity after ingestion by human volunteers. The format is in vivo. The note with it: raw data. On the procedure: as §2
The nature of assay [3]: Closure time after ingestion by human volunteers. The note with it: FIG. 4. The format is in vivo.
The subject of a further assay is plasma tPA. Put plainly: Plasma tPA activity after ingestion by human volunteers. It is filed as in vivo. The note with it: for plasma tPA activity, time course: non-transformed (raw) data. On the procedure:
as §2

A further assay deals with plasma PAI. Description: Plasma PAI activity after ingestion by human volunteers. The format is in vivo. On the procedure:
as §2

Assay [4] concerns total PAI in HUVEC medium. Description: Total PAI (free and tPA/uPA-bound) in HUVEC culture medium. The format is cell-based, human. To be noted: 24 h, 5 μM as compared to 1 μM, FIG. 3. The procedure: as §3
Assay [5] concerns tPA mRNA expression in human umbilical vein endothelial cells (HUVEC). Put plainly: Taqman gene expression assay, tPA mRNA in HUVEC. It is filed as cell-based. The note with it: 5 μM, 0.5 to 24 hours, FIG. 1A. On the procedure:
as §1

Entries after “also recorded” stand apart in the source; their conditions may differ.

With `Oc1cc(O)c2c(c1)O[C@H](c1ccc(O)c(O)c1)[C@H](O)C2` [(−)-epicatechin], the “expression, secreting or activity of various proteins related to cardiovascular function” value (“expression, secreting or activity” for short) in the assay on human endothelial cells is given as “modulated”.

Turning to `Oc1cc(O)c2c(c1)O[C@@]1(c3ccc(O)c(O)c3)Oc3cc(O)c4c(c3[C@@H]2[C@H]1O)O[C@H](c1ccc(O)c(O)c1)[C@H](O)C4` [A2 dimer, epicatechin-(4β→8; 2β→O→7)-epicatechin], the “expression, secreting or activity” value in the assay with human endothelial cells is listed as “modulated”.

As for `Oc1cc(O)c2c(c1)O[C@H](c1ccc(O)c(O)c1)[C@H](O)[C@H]2c1c(O)cc(O)c2c1O[C@H](c1ccc(O)c(O)c1)[C@@H](O)C2` [B1 dimer, procyanidin dimer B1], the “mRNA expression for uPA” value in [1] is “time-dependent increases”. Also, the “plasma tPAtotal levels, time-dependent change” value in the assay on plasma tPAtotal was “neither the ingestion of the B1 dimer nor that of the vehicle caused a time-dependent change”. Also, the “increases in media-present tPA activity versus vehicle” value in the assay on tPA release from HUVEC (24 h, 5 μM and 10 μM, One Way ANOVA followed by Tukey Test) is “significantly different from vehicle treatments”. For the same compound, in the assay with tPA release from HUVEC (24 hours of incubation, different concentrations, FIG. 2), the “tPA activity in the cell culture medium” value was “dose-dependent increase; also recorded: increase in tPA activity”. Besides, in the assay with PAI release from HUVEC, the “activity of PAI in the media” value is recorded as “dose-dependant decrease”. Moreover, in the assay on human endothelial cells, the “expression, secreting or activity” value is listed as “modulated”. Moreover, in assay [2], the “expression of PAI mRNA” value is recorded as “decreases”. Further, the “plasma uPA activity, time-dependent change” value in the assay on plasma uPA was “did not cause a statistically significant, time-dependant change”. In addition, the “closure time as compared to vehicle (water)” value in assay [3] was “augmentation of the closure time”. For the same compound, in the assay with plasma tPA (n=4), the “increase in tPAmax (mean maximal increase in plasma tPA activity)” value is reported as 46% and the “mean tPAmax” value is on record as 261.4+/−39.4 mU/mL. Also, the “plasma tPA activity, time course” value in the assay with plasma tPA (One Way ANOVA P=0.333) is on record as “time-dependent increase”. Moreover, the “plasma tPA activity, time course” value with plasma tPA (One Way ANOVA P=0.333, listed as B1) is listed as “increases plasma tPA activity”. The “plasma PAI activity, time-dependent change” value in the assay on plasma PAI (raw data) is “did not cause a statistically significant, time-dependant change”. Besides, the “PAI plasma activity, normalized to individual baselines” value in the assay with plasma PAI (statistical significance at 4 h post-ingestion (P=0.011, t-test)) is recorded as “time-dependently decreased”. For the same compound, the “total PAI (free and tPA/uPA-bound) in medium” value in [4] is “modulate; also recorded: increase in total PAI”. Moreover, in assay [5], the “mRNA expression for tPA” value is on record as “time-dependent increases”.
